Results: US20040006026A1, “Avilamycin derivatives” (Combinature Biopharm AG, priority 2001, published 2004)
Like-named read-outs stand apart in the source and are kept apart here.

What was measured:
[1] = test system: multiresistant Staphylococcus aureus strains; details: Zähner, 1999; cited from earlier work
[2] = test system: Streptococcus pneumoniae ATCC49619; experiment: broth microdilution antimicrobial spectrum (NCCLS); type: cell-based
Description: (§1) The antimicrobial spectrum of gavibamycin A3 was determined and compared with that of avilamycin A. In this context, the “broth microdilution” method in accordance with the regulations of the national committee for clinical laboratory standards (NCCLS) was used.

[3] = test system: Staphylococcus aureus ATCC6538; experiment: broth microdilution antimicrobial spectrum (NCCLS); type: cell-based
Description: as §1

[4] = test system: Staphylococcus aureus ATCC29213; experiment: broth microdilution antimicrobial spectrum (NCCLS); type: cell-based
Description: as §1

[5] = test system: Staphylococcus aureus Q48-1.2.1; experiment: broth microdilution antimicrobial spectrum (NCCLS); type: cell-based
Description: as §1

[6] = test system: Staphylococcus aureus ATCC6538P; experiment: broth microdilution antimicrobial spectrum (NCCLS); type: cell-based
Description: as §1

Bacillus subtilis = experiment: broth microdilution antimicrobial spectrum (NCCLS); type: cell-based
Description: as §1

[7] = test system: Enterococcus faecalis H-7-6; experiment: broth microdilution antimicrobial spectrum (NCCLS); type: cell-based
Description: as §1

[8] = test system: Enterococcus faecalis ATCC29212; experiment: broth microdilution antimicrobial spectrum (NCCLS); type: cell-based
Description: as §1

[9] = parenteral administration to a patient, tolerance; type: in vivo
Description: 5 g gavibamycin A3 are dissolved in 1 l water for injection purposes, if necessary using a pharmaceutically well tolerated solubility enhancer, at room temperature, and subsequently adjusted to isotonic conditions for injection purposes by adding water-free glucose.
In an average patient, with a body weight of approximately 65 kg, 0.5 mL of this solution is administered, in other words 2.5 mg or approximately […].

[10] = hydrophilia from Rf values / retention factors of TLC and HPLC analysis; type: physicochemical
Description: TLC analysis: Streptomyces viridochromogenes Tü57 and the mutants GW-4 and GW4-AM1 were incubated for three days. The cultures were filtered off, and the filtrate was applied to a solid-phase extraction cartridge (SepPakC18, Waters). The cartridge was eluted with a gradient between 10% and 100% methanol in water. Avilamycin derivatives eluted with the fraction that contains 60-70% methanol. After extraction with ethyl acetate and withdrawal of the solvent, the avilamycin derivatives were dissolved in methanol once again and measured by means of TLC on silica gel plates (silica gel 60 F254, Merck), with methylene chloride/methanol (9:1, v/v) as the solvent. Avilamycin derivatives had been detected after treatment with anisaldehyde/H2SO4.
An analytical HPLC-UV was carried out on a Hewlett Packard 1090 Liquid Chromatograph with a photodiode array detector and a HP-ODS-Hypersil 5 μm, 200×2 mm column. The sequence of the solutions was as follows: Solution A, 0.04M (NH4)2HPO4 pH 7.0 buffer; Solution B, 100% methanol; a non-linear gradient, with 30-62% of Solution B distributed over a period of 25 min at a flow rate of 0.2 mL/min.
(§2) Furthermore, gavibamycin A3 was tested with regard to its antibiotic effect. […] The non-chlorinated gavibamycin derivatives also have antibiotic activity.

[11] = test system: various Staphylococcus aureus strains; experiment: preliminary tests / first MIC experiments; type: cell-based
Description: as §1, §2

Structure (SMILES) | activity against multiresistant Staphylococcus aureus strains [1] | antibiotic activity [2] | antibiotic activity [3] | antibiotic activity [4] | antibiotic activity [5] | antibiotic activity [6] | antibiotic activity (Bacillus subtilis) | antibiotic activity [7] | antibiotic activity [8] | tolerance of higher dosage ([9]; human, in vivo) | tolerance of the administered dose ([9]; patient approx. 65 kg, 0.5 mL of 5 g/l solution, 2.5 mg, parenteral) | hydrophilia compared with avilamycin A [10] | hydrophilia compared with avilamycin A ([10]; listed as gavibamycin) | activity against various Staphylococcus aureus strains compared with avilamycin A [11] | activity against various Staphylococcus aureus strains compared with avilamycin A ([11]; listed as gavibamycin)
COC[C@H]1O[C@@H](OC2OC[C@@H]3O[C@]4(O[C@H]3[C@H]2OC(=O)C(C)C)O[C@H](C)[C@@](O)(C(C)=O)[C@@H]2OCO[C@H]24)[C@@H](OC)[C@@H](O)[C@@H]1O[C@@H]1O[C@H](C)[C@H](OC)[C@H](O[C@H]2C[C@@]3(C)OC4(C[C@@H](O)[C@H](O[C@H]5C[C@@H](O)[C@H](OC(=O)c6c(C)c(Cl)c(O)c(Cl)c6OC)[C@@H](C)O5)[C@@H](C)O4)O[C@@H]3[C@@H](C)O2)[C@H]1O (some centres unmarked) [avilamycin A, reference compound] | excellent activity | demonstrate antibiotic activity | demonstrate antibiotic activity | demonstrate antibiotic activity | demonstrate antibiotic activity | demonstrate antibiotic activity | demonstrate antibiotic activity | demonstrate antibiotic activity | demonstrate antibiotic activity | – | – | – | – | – | –
COCC1OC(OC2OCC3OC4(OC3C2OC(=O)C(C)C)OC(C)C(O)(C(C)O)C2OCOC24)C(OC)C(O)C1OC1OC(C)C(OC)C(OC2CC3(C)OC4(CC(O)C(OC5CC(O)C(OC(=O)c6c(C)c(Cl)c(O)c(Cl)c6O)C(C)O5)C(C)O4)OC3C(C)O2)C1O (centres unmarked) [gavibamycin A3] | – | demonstrate antibiotic activity | demonstrate antibiotic activity | demonstrate antibiotic activity | demonstrate antibiotic activity | demonstrate antibiotic activity | demonstrate antibiotic activity | demonstrate antibiotic activity | demonstrate antibiotic activity | toxicologically unproblematic and was well tolerated | well tolerated by the patient | somewhat more hydrophilic than avilamycin A | much more hydrophilic | somewhat stronger activity | somewhat more active than avilamycin A
